Data published in patent US12377054B2, “Targeting the innate immune system to induce long-term tolerance and to resolve macrophage accumulation in atherosclerosis” (Icahn School of Medicine at Mount Sinai, priority 2016, dated 2025).

Tests used:
myeloid cell compartment = test: Flow cytometry of leukocytes and myeloid cell compartment in blood, spleen and allograft of heart transplant recipients; type: in vivo, mice; conditions: six days after transplantation
Excerpt: The leukocyte population was profiled and, more extensively, the myeloid cell compartment, including neutrophils. Mo/MΦ and DC, in the blood, spleens and allografts of mice receiving placebo, oral rapamycin (Oral-Ra) and mTOR-HDL treatments, where the treatment regimen involved three intravenous mTOR-HDL injections, on the day of, as well as at two and five days post transplantation.
Mo/MΦ comprise two different subsets (Ly-6C^hi and Ly-6C^lo) with district migratory properties^23. Six days after transplantation, untreated and Oral-Ra-treated mice had increased numbers of accumulated myeloid cells in their blood, spleen and heart allografts (FIG. 2B and FIG. 9A). Further, the elevated Mo/MΦ populations contained high percentages of inflammatory Ly6C^hi monocytes (FIGS. 9A and 2B). […] The Mo/MΦ subset proportions in the spleen and transplanted organs reflected the levels in peripheral blood (FIG. 1E).
Mouse hearts were rinsed in situ with HBSS with 1% heparin. Explanted hearts were cut into small pieces and digested for 40 minutes at 37° C. with 400 U/ml collagenase IV (Sigma-Aldrich), 10 mM HEPES (Cellgro) and 0.01% DNase 1 (MP Biomedicals) in HBSS (Cellgro). Digested suspensions were passed through a nylon mesh and centrifuged, and the cell pellet was re-suspended in complete HBSS, stained and analyzed by flow cytometry (BD LSR-II; BD Biosciences).
For myeloid cell staining, fluorochrome-conjugated mAbs specific to mouse CD45 (clone 30-F11). CD11b (clone MI/70), CD11c (clone N418), F4/80 (clone CI:A3.1). Ly-6C (clone HK1.4) and corresponding isotype controls were purchased from eBioscience. Ly-6G (clone 1A8) mAb was purchased from Biolegend. F4/80 (clone CI:A3.1) was purchased from AbD Serotec. […] Flow cytometric analysis was performed on LSR II (BD Biosciences) and analyzed with FlowJo software (Tree Star, Inc.). Results are expressed as percentage of cells staining or cells counting (cells per milliliter) above background. mAbs were titered at regular intervals during the course of these studies to ensure the use of saturating concentrations. […]

cardiac allografts = test: Heart allograft survival (BALB/c into C57BL/6); type: in vivo, mice; conditions: over a 50-day period, three doses 5 mg/kg rapamycin
Experimental: Lastly, nanoimmunotherapy treatment's capacity to prevent organ rejection and prolong allograft survival was evaluated. Balb/c (H2^d) donor cardiac allografts were transplanted into fully allogeneic C57Bl/6 (H2) recipients treated with: (1) placebo. […] To assess graft survival, recipients underwent abdominal palpation until cardiac contractions completely ceased.
BALB/c hears were transplanted as fully vascularized heterotopic grafts into C57BL/6 mice as previously described^45. […] Cardiac allograft survival was subsequently assessed through daily palpation. Rejection was defined as the complete cessation of cardiac contraction and was confirmed by direct visualization at laparotomy. Graft survival was compared among groups using Kaplan-Meier survival analysis.

[1] = mouse, in vivo, po
[2] = tested on: RAW 264.7 cell line of murine macrophages; test: In vitro BrdU incorporation in RAW 264.7 macrophages; type: cell-based; conditions: 24 hours

In the case of `CO[C@H]1C[C@@H]2CC[C@@H](C)[C@@](O)(O2)C(=O)C(=O)N2CCCC[C@H]2C(=O)O[C@H]([C@H](C)C[C@@H]2CC[C@@H](O)[C@H](OC)C2)CC(=O)[C@H](C)/C=C(\C)[C@@H](O)[C@@H](OC)C(=O)[C@H](C)C[C@H](C)/C=C/C=C/C=C/1C` [Oral-Ra, rapamycin], the “Ly-C^lo monocytes in blood” value (myeloid cell compartment) is reported as 13%, the “Ly-C^lo monocytes in heart allografts” value (myeloid cell compartment) is reported as 18% and the “Ly-C^lo monocytes in spleen” value (myeloid cell compartment) is reported as 44%. For the same molecule, the allograft survival (cardiac allografts) was 35% and the kidney toxicity parameters [1] was “statistical differences between Oral-Ra and mTOR-HDL”.

With `Cc1ccc(C)c(N/C=C/C(=O)c2ccccc2)c1` [compound 6877002, (2E)-1-phenyl-3-(2,5-dimethylanilino)-2-propen-1one] the “proliferation rate of RAW 264.7 macrophages” value [2] was “did not affect the proliferation rate”.
